Reference: the NIST ThermoML archive (doi:10.1016/j.jct.2009.09.003)
Several values for one entry are separate records, joined by “and”; a condition that tells them apart may be missing. Identical values can stand only once. Numbers after ± are expanded uncertainties.

Conditions: Liquid, Transpiration

NCCNCCNCCN [1,2-ethanediamine, N,N'-bis(2-aminoethyl)-]
Conditions | vapor or sublimation pressure
338.2 K | 0.00866 ± 0.0017 kPa
340.7 K | 0.01059 ± 0.0021 kPa
343.5 K | 0.0135 ± 0.0027 kPa
346.3 K | 0.01645 ± 0.0033 kPa
347.2 K | 0.01792 ± 0.0036 kPa
348.2 K | 0.01944 ± 0.0039 kPa
349.4 K | 0.0209 ± 0.0042 kPa
350.1 K | 0.022 ± 0.0044 kPa
350.2 K | 0.02259 ± 0.0045 kPa
352.4 K | 0.02695 ± 0.0054 kPa
353.2 K | 0.02857 ± 0.0057 kPa
355.2 K | 0.03317 ± 0.0066 kPa
355.4 K | 0.03445 ± 0.0069 kPa
356.2 K | 0.03575 ± 0.0072 kPa
358.5 K | 0.04226 ± 0.0085 kPa
359.2 K | 0.04519 ± 0.0091 kPa
361.2 K | 0.05252 ± 0.011 kPa
363.2 K | 0.05873 ± 0.012 kPa
364.2 K | 0.0654 ± 0.013 kPa
365.4 K | 0.06908 ± 0.014 kPa
367.4 K | 0.07992 ± 0.016 kPa
368.1 K | 0.08563 ± 0.017 kPa and 0.08484 ± 0.017 kPa
370.2 K | 0.09747 ± 0.02 kPa
370.4 K | 0.09756 ± 0.02 kPa
371 K | 0.1008 ± 0.02 kPa
373.3 K | 0.1176 ± 0.024 kPa

CN1CCN(C)CC1 [1,4-dimethylpiperazine]
Conditions | vapor or sublimation pressure [kPa]
268.1 K | 0.2307 ± 0.046
270.3 K | 0.2719 ± 0.054
274.1 K | 0.3511 ± 0.07
274.8 K | 0.3656 ± 0.073
278.5 K | 0.486 ± 0.097
280.1 K | 0.5177 ± 0.1
283.6 K | 0.6602 ± 0.13
286.1 K | 0.7611 ± 0.15
288.5 K | 0.8272 ± 0.17
291.1 K | 0.9973 ± 0.2
293.6 K | 1.116 ± 0.22
296.1 K | 1.359 ± 0.27
298.5 K | 1.561 ± 0.31
301.1 K | 1.834 ± 0.37
303.4 K | 2.102 ± 0.42
306.1 K | 2.518 ± 0.5
308.5 K | 2.6 ± 0.52
311.1 K | 3.202 ± 0.64

CN1CCN(CCN)CC1 [1-(2-aminoethyl)-4-methyl-piperazine]
Conditions | vapor or sublimation pressure
297.8 K | 0.0246 ± 0.0049 kPa
298.8 K | 0.0265 ± 0.0053 kPa
302 K | 0.0341 ± 0.0069 kPa
302.7 K | 0.0368 ± 0.0074 kPa
304.6 K | 0.0433 ± 0.0087 kPa
307.2 K | 0.0548 ± 0.011 kPa and 0.0538 ± 0.011 kPa
310.5 K | 0.0691 ± 0.014 kPa
311.6 K | 0.0765 ± 0.015 kPa
313.2 K | 0.085 ± 0.017 kPa
314.3 K | 0.0925 ± 0.018 kPa
315.9 K | 0.1026 ± 0.021 kPa
317.1 K | 0.1153 ± 0.023 kPa
320.2 K | 0.1434 ± 0.029 kPa
323.7 K | 0.1872 ± 0.037 kPa
327.7 K | 0.2497 ± 0.05 kPa
331.8 K | 0.3218 ± 0.065 kPa

NCCN1CCNCC1 [N-(β-aminoethyl)piperazine)]
Conditions | vapor or sublimation pressure
295.7 K | 0.0064 ± 0.0013 kPa
297.7 K | 0.0079 ± 0.0016 kPa
300.4 K | 0.0096 ± 0.0019 kPa
303.3 K | 0.0127 ± 0.0026 kPa and 0.0131 ± 0.0026 kPa
304.7 K | 0.0144 ± 0.0029 kPa
305.6 K | 0.015 ± 0.003 kPa
308.2 K | 0.0193 ± 0.0039 kPa
310.2 K | 0.0227 ± 0.0046 kPa
312.6 K | 0.028 ± 0.0056 kPa
314.6 K | 0.0333 ± 0.0067 kPa
317.5 K | 0.0414 ± 0.0083 kPa
320.7 K | 0.0534 ± 0.011 kPa
323.1 K | 0.0653 ± 0.013 kPa
326.4 K | 0.0835 ± 0.017 kPa
328.2 K | 0.0943 ± 0.019 kPa
330.5 K | 0.1135 ± 0.023 kPa
330.7 K | 0.1203 ± 0.024 kPa
333.1 K | 0.1411 ± 0.028 kPa
333.2 K | 0.134 ± 0.027 kPa
335.2 K | 0.1628 ± 0.033 kPa
338.1 K | 0.1943 ± 0.039 kPa
